Measured values: publication PMC3626541, “A first in human, safety, pharmacokinetics, and clinical activity phase I study of once weekly administration of the Hsp90 inhibitor ganetespib (STA-9090) in patients with solid malignancies” (BMC Cancer, 2013)
“Also recorded” adds a separate entry of the source.

Experiments:
HSP70 protein in plasma = HSP70 protein in plasma by ELISA; format: in vivo, human; conditions: for Peak circulating plasma HSP70 level: NSCLC patient, 150 mg/m^2
Description: Pre-dose blood samples on Days 1, 8 and 15 of Cycle 1 and 2 were collected for assessment of HSP70 protein in plasma by ELISA. Assays were performed using high sensitivity HSP70 ELISA kits (Assay Design, Ann Arbor, Michigan), with a sensitivity limit as low as 90 pg/ml, according to manufacturers’ instructions. Results were detected using a microplate ELISA reader at 450 nm with a correction wavelength of 540 nm. Concentrations of HSP70 were normalized to the total protein in each plasma sample.

[1] = system: patients with advanced solid tumors; set-up: method as in unpublished observation; conditions: over 400 patients treated in other studies; ref unpublished observation; cited from earlier work
[2] = Plasma pharmacokinetics (HPLC-MS/MS, non-compartmental); format: in vivo, human
Description: Blood samples were taken for ganetespib plasma concentration determination on Days 1 and 15 of Cycle 1 pre-dose, 0.5, 1, 1.5, 2, 4, 6, 8 and 24 h after infusion initiation. Samples were also drawn pre-dose and at 1 h, on Day 8 of Cycle 1 and Days 1, 8 and 15 of subsequent cycles. Plasma was separated and stored at a −70°C until analysis. Analyses were performed by a validated HPLC-MS/MS method under GLP conditions at Synta Pharmaceuticals Corp. Calibration curve coefficients of determination (r^2) ranged from 0.9897 to 0.9992. Back-calibrated calibration standards were in good agreement with QC samples with bias ≤ ± 3%, and calibration-curve r^2 variation was ≤ ± 6.5% across a concentration range of 0.100 through 100 ng/ml.
Pharmacokinetic parameters were computed non-compartmentally using standard methods within a validated installation of WinNonlin (v4.1, Pharsight Corporation, St. Louis, MO). Parameters included the maximum concentration (Cmax), area under the plasma concentration versus time curve (AUC), time of maximum concentration (Tmax), and terminal elimination half-life (t1/2).

advanced solid tumors = assay: Tumor response (RECIST v1.0); format: in vivo, human; conditions: for Disease control rate (≥ 8 weeks): complete and partial responses, and stable disease ≥ 8 weeks; for Disease control rate (≥ 16 weeks): complete and partial responses, and stable disease ≥ 16 weeks; for Best response: Complete response / Best response: Non-evaluable / Best response: Partial response / Best response: Progressive disease / Best response: Stable disease: investigator-evaluated
Description: Patients’ demographics and medical history were recorded at baseline. Physical examination and PS were assessed at baseline and on Day 1 of each cycle. Adverse events (AEs), vital signs, hematology and chemistry values, and creatinine clearance were assessed at baseline and weekly during treatment. Toxicity was graded using National Cancer Institute Common Terminology Criteria for Adverse Events (NCI CTCAE), version 3.0. An electrocardiogram (ECG) was performed at baseline, before and after treatment on Days 1 and 15 of Cycles 1 and 2, and on Day 15 of even-numbered cycles thereafter. CT scans were done at baseline and every 8 weeks thereafter. Tumor response was assessed using Response Evaluation Criteria in Solid Tumors (RECIST, v1.0), with confirmation of responses performed at least 4 weeks later.

[3] = 1-hour IV infusion, across doses
[4] = one NSCLC patient, 150 mg/m^2, BRAF G469A mutation

Which “Peak circulating plasma HSP70 level” value (HSP70 protein in plasma; Cycle 1) does the source give for CC(C)c1cc(-c2n[nH]c(=O)n2-c2ccc3c(ccn3C)c2)c(O)cc1O [Ganetespib, 5-[2,4-dihydroxy-5-(1 methyl-ethyl)phenyl]-2,4 dihydro-4-(1-methyl-1H indol-5 yl)-3H-1,2,4 triazole-3-one] here?
Its value is 750 ng/g.

And the “Peak circulating plasma HSP70 level” value (HSP70 protein in plasma; Cycle 2)?
The value was 730 ng/g.

And the “Hsp70 plasma protein levels versus baseline” value (HSP70 protein in plasma; Days 8 and 15, pre-dose, majority of patients)?
Its value is “significantly elevated”.

What about the “Dose levels at which Hsp70 induction saturates” value (HSP70 protein in plasma; mean maximum increase of HSP70 in Cycle 1) of the same compound?
The value was “above 180 mg/m^2”.

And the “Persistence of elevated HSP70 protein plasma levels following drug exposure” value (HSP70 protein in plasma; post treatment)?
Its value is “over a week; also recorded: at least a week”.

What about the “Incidence of treatment related visual changes” value [1] of the same compound?
The value was less than 3%.

What about the “Tmax occurrence at the time of the 0.5 h sample” value ([2]; 1-hour IV infusion) of the same compound?
Its value is 39 % of drug administrations.

And the “Mean steady state volume of distribution (Vss)” value [2, 3]?
Its value is 107 ± 98 L/m^2.

What about the Plasma drug clearance [2, 3] of the same compound?
The Plasma drug clearance was 28.55 ± 9.33 L/h/m^2.

And the Tmax ([2]; human, plasma, 1-hour IV infusion)?
Its Tmax is 0.79 h.

And the Vd ([2]; human, plasma, 1-hour IV infusion, across doses, read-out: Mean steady state volume of distribution (Vss))?
The Vd was 196 ± 172 L.

And the clearance ([2]; human, plasma, 1-hour IV infusion, across doses, read-out: Plasma drug clearance (converted))?
Its clearance is 877 mL/min.

And the half-life ([2]; human, plasma, 1-hour IV infusion, across doses, read-out: Terminal t1/2 (mean ± SD) (converted))?
The half-life was roughly 7.54 h.

And the Drug accumulation ([2]; once-weekly doses, Day 1 vs Day 15)?
The Drug accumulation was “no apparent drug accumulation”.

What about the “Coefficient of variation for clearance” value ([2]; overall variability in exposure) of the same compound?
Its value is 33.8%.

What about the “Plasma concentration as % of Cmax” value ([2]; within 8 to 10 h) of the same compound?
The value was ~1 % of Cmax.

And the “Plasma concentration as % of Cmax” value ([2]; within 1 h of infusion termination)?
The value was “approximately 10 % of Cmax”.

And the “Disease control rate (≥ 8 weeks)” value (advanced solid tumors; 259 mg/m^2, n = 6)?
Its value is 2 (33.3) n (%).

And the “Disease control rate (≥ 16 weeks)” value (advanced solid tumors; 259 mg/m^2, n = 6)?
Its value is 2 (33.3) n (%).

What about the “Best response: Complete response” value (advanced solid tumors; 259 mg/m^2, n = 6) of the same compound?
Its value is 0 n (%).

And the “Best response: Non-evaluable” value (advanced solid tumors; 259 mg/m^2, n = 6)?
The value was 1 (16.7) n (%).

And the “Best response: Partial response” value (advanced solid tumors; 259 mg/m^2, n = 6)?
Its value is 0 n (%).

What about the “Best response: Progressive disease” value (advanced solid tumors; 259 mg/m^2, n = 6) of the same compound?
Its value is 3 (50) n (%).

And the “Best response: Stable disease” value (advanced solid tumors; 259 mg/m^2, n = 6)?
Its value is 2 (33.3) n (%).

What about the “Disease control rate (≥ 8 weeks)” value (advanced solid tumors; 7-114 mg/m^2, n = 25) of the same compound?
Its value is 11 (44) n (%).

And the “Disease control rate (≥ 16 weeks)” value (advanced solid tumors; 7-114 mg/m^2, n = 25)?
The value was 5 (20) n (%).

What about the “Best response: Complete response” value (advanced solid tumors; 7-114 mg/m^2, n = 25) of the same compound?
The value was 0 n (%).

And the “Best response: Non-evaluable” value (advanced solid tumors; 7-114 mg/m^2, n = 25)?
The value was 4 (16) n (%).

And the “Best response: Partial response” value (advanced solid tumors; 7-114 mg/m^2, n = 25)?
The value was 1 (4) n (%).

And the “Best response: Progressive disease” value (advanced solid tumors; 7-114 mg/m^2, n = 25)?
Its value is 10 (40) n (%).

And the “Best response: Stable disease” value (advanced solid tumors; 7-114 mg/m^2, n = 25)?
The value was 10 (40) n (%).

And the “Patients with SD for at least 8 weeks” value (advanced solid tumors; 10 patients with NSCLC)?
The value was 60%.

What about the “Duration of SD (range)” value (advanced solid tumors; 23 patients with SD) of the same compound?
The value was 46 to 563 days.

And the “Disease control rate (≥ 8 weeks)” value (advanced solid tumors; 150-216 mg/m^2, n = 22)?
The value was 11 (50) n (%).

What about the “Disease control rate (≥ 16 weeks)” value (advanced solid tumors; 150-216 mg/m^2, n = 22) of the same compound?
Its value is 6 (27.3) n (%).

What about the “Best response: Complete response” value (advanced solid tumors; 150-216 mg/m^2, n = 22) of the same compound?
Its value is 0 n (%).

What about the “Best response: Non-evaluable” value (advanced solid tumors; 150-216 mg/m^2, n = 22) of the same compound?
The value was 6 (27.3) n (%).

And the “Best response: Partial response” value (advanced solid tumors; 150-216 mg/m^2, n = 22)?
The value was 0 n (%).

And the “Best response: Progressive disease” value (advanced solid tumors; 150-216 mg/m^2, n = 22)?
The value was 5 (22.7) n (%).

What about the “Best response: Stable disease” value (advanced solid tumors; 150-216 mg/m^2, n = 22) of the same compound?
Its value is 11 (50) n (%).

And the “Disease control rate (≥ 8 weeks)” value (advanced solid tumors; Overall response, n = 53)?
Its value is 24 (45.3) n (%).

And the “Disease control rate (≥ 16 weeks)” value (advanced solid tumors; Overall response, n = 53)?
Its value is 13 (24.5) n (%).

And the “Best response: Complete response” value (advanced solid tumors; Overall response, n = 53)?
Its value is 0 n (%).

And the “Best response: Non-evaluable” value (advanced solid tumors; Overall response, n = 53)?
The value was 11 (20.8) n (%).

And the “Best response: Partial response” value (advanced solid tumors; Overall response, n = 53)?
Its value is 1 (1.9) n (%).

And the “Best response: Progressive disease” value (advanced solid tumors; Overall response, n = 53)?
The value was 18 (34) n (%).

And the “Best response: Stable disease” value (advanced solid tumors; Overall response, n = 53)?
The value was 23 (43.4) n (%).

What about the “Disease control rate (PR and SD ≥ 16 weeks)” value (advanced solid tumors; all patients) of the same compound?
Its value is 24.5%.

What about the “Patients with SD” value (advanced solid tumors; all patients) of the same compound?
Its value is 43.4%.

What about the “Doses generally associated with disease stabilization” value (advanced solid tumors; heavily pre-treated patients with metastatic cancers) of the same compound?
Its value is “higher than 80 mg/m^2”.

And the “Patients with PR” value (advanced solid tumors; metastatic colorectal cancer)?
Its value is “One patient”.

And the “Maximum reduction in target lesions” value (advanced solid tumors; [4])?
Its value is 26.5%.

And the Time on study (advanced solid tumors; [4])?
The Time on study was 13 months.

What about the “Maximum reduction in target lesions” value (advanced solid tumors; one patient with metastatic GIST, 216 mg/m^2, PDGFRA^D842V exon 18 mutation) of the same compound?
The value was 18%.

And the “Duration of disease stabilization” value (advanced solid tumors; one patient with neuroendocrine tumor, 259 mg/m^2)?
Its value is “over 20 months”.
